In US4036834A, “Derivatives of 7-(α-hydroxy-substituted pyridyl carboxamido-α p h Δ^3 -cephem-4-carboxylic acid” (Yamanouchi Pharmaceutical Co., Ltd., priority 1974, dated 1977):
Values after ≈ are worked out from the molar mass of the structure shown. Like-named read-outs stand apart in the source and are kept apart here.

What was measured:
[1] = tested on: Pseudomonas ovalis IAM 1002; assay: MIC against Pseudomonas ovalis IAM 1002; format: cell-based; conditions: Pseudomonas putida, IAM1002
Source text: (§1) Now, for illustrating the excellent pharmacological effects of the compounds of this invention, the values of MIC (γ/ml) of the compounds against various bacteria are shown in the following table, the compounds of this invention are shown by example numbers.
6: Pseudomonas ovalis IAM 1002

[2] = tested on: pseudomonas aeruginosa ATCC 8689; assay: MIC against pseudomonas aeruginosa ATCC 8689; format: cell-based; conditions: Pseudomonas aeruginosa, ATCC8689
Source text: as §1
4: pseudomonas aeruginosa ATCC 8689

[3] = tested on: micrococcus flavus ATCC 10240; assay: MIC against micrococcus flavus ATCC 10240; format: cell-based; conditions: ATCC10240; micrococcus flavus ATCC 10240; read-out: MIC
Source text: as §1

Staphylococcus Onuma = assay: MIC against Staphylococcus Onuma; format: cell-based
Source text: as §1

Proteus vulgaris OXK US = assay: MIC against Proteus vulgaris OXK US; format: cell-based; conditions: Proteus vulgaris OXK US; read-out: MIC
Source text: as §1
1: Proteus vulgaris OXK US

salmonella enteritidis = assay: MIC against salmonella enteritidis; format: cell-based; conditions: Salmonella enterica; salmonella enteritidis; read-out: MIC
Source text: as §1
10: salmonella enteritidis

[4] = tested on: bacillus megatherium 10778; assay: MIC against bacillus megatherium 10778; format: cell-based; conditions: bacillus megatherium 10778; read-out: MIC
Source text: as §1

[5] = tested on: Shigella flexnori 2a 1675; assay: MIC against Shigella flexnori 2a 1675; format: cell-based; conditions: 2A1675
Source text: as §1

Shigella sonnei II 37148 = assay: MIC against Shigella sonnei II 37148; format: cell-based; conditions: II37148
Source text: as §1

[6] = tested on: pseudomonas aeruginosa 99 (Gentamycin resistant); assay: MIC against pseudomonas aeruginosa 99 (Gentamycin resistant); format: cell-based; conditions: Pseudomonas aeruginosa
Source text: as §1
5: pseudomonas aeruginosa 99 (Gentamycin resistant)

[7] = tested on: escherichia coli Kauffman 0-1; assay: MIC against escherichia coli Kauffman 0-1; format: cell-based
Source text: as §1
7: escherichia coli Kauffman 0-1

[8] = tested on: proteus mirabilis IFM OM-19; assay: MIC against proteus mirabilis IFM OM-19; format: cell-based; conditions: IFMOM19
Source text: as §1
3. proteus mirabilis IFM OM-19

[9] = water solubility, naked-eye observation of solutions; format: physicochemical
Source text: Then, the experimental results showing the excellent water solubility of the compounds of this invention are illustrated in the following table, the results being the observation results by the naked eyes of the solutions thereof in each concentration as shown in the table.

[10] = tested on: staphylococcus Shimanishi; assay: MIC against staphylococcus Shimanishi; format: cell-based
Source text: as §1
17. staphylococcus Shimanishi

[11] = tested on: staphylococcus aureus 209P; assay: MIC against staphylococcus aureus 209P; format: cell-based; conditions: read-out: MIC
Source text: as §1
16: staphylococcus aureus 209P

proteus vulgaris OX 19US = assay: MIC against proteus vulgaris OX 19US; format: cell-based; conditions: OX19US; proteus vulgaris OX 19US; read-out: MIC
Source text: as §1
2. proteus vulgaris OX 19US

[12] = tested on: Bacillus subtilis ATCC 6633; assay: MIC against Bacillus subtilis ATCC 6633; format: cell-based; conditions: ATCC6633; Bacillus subtilis ATCC 6633; read-out: MIC
Source text: as §1
14: Bacillus subtilis ATCC 6633

salmonella typhi H901W = assay: microbe, parasite or virus in culture; format: cell-based; conditions: Salmonella enterica
[13] = tested on: Klebsiella pneumoniae ATCC 10031; assay: MIC against Klebsiella pneumoniae ATCC 10031; format: cell-based; conditions: ATCC10031
Source text: as §1
8: Klebsiella pneumoniae ATCC 10031

Row | Compound | MIC [1] | MIC [2] | MIC [3] | MIC (Proteus vulgaris OXK US) | MIC (salmonella enteritidis) | MIC [4] | MIC [5] | MIC (Shigella sonnei II 37148) | MIC [6] | MIC [8] | water solubility (appearance of solution by the naked eyes) ([9]; concentration 1%) | water solubility (appearance of solution by the naked eyes) ([9]; concentration 5%) | water solubility (appearance of solution by the naked eyes) ([9]; concentration 10%) | water solubility (appearance of solution by the naked eyes) ([9]; concentration 20%) | MIC [11] | MIC (proteus vulgaris OX 19US) | MIC [12] | MIC (salmonella typhi H901W) | further results
1 | Cc1c(S)sc(SCC2=C(C(=O)O)N3C(=O)[C@@H](NC(=O)[C@H](NC(=O)c4cnccc4O)c4ccccc4)[C@H]3SC2)c(C)c1=O [Example 3, 7-[D-α-(4-hydroxynicotinoylamido)-α-phenylacetamido]-3-(3,5-dimethyl-6-mercapto-4-oxo-4H-thiopyran-2-yl)thiomethyl-Δ^3-cephem-4-carboxylic acid] | 6.25 µg/mL (≈ 9.32 µM) | 12.5 µg/mL (≈ 18.6 µM) | 1.56 µg/mL (≈ 2.33 µM) | 0.19 µg/mL (≈ 0.283 µM) | 0.78 µg/mL (≈ 1.16 µM) | 0.19 µg/mL (≈ 0.283 µM) | 6.25 µg/mL (≈ 9.32 µM) | 12.5 µg/mL (≈ 18.6 µM) | 12.5 µg/mL (≈ 18.6 µM) | 0.78 µg/mL (≈ 1.16 µM) | clear | clear | clear | clear | 1.56 µg/mL (≈ 2.33 µM) | 0.39 µg/mL (≈ 0.581 µM) | 0.78 µg/mL (≈ 1.16 µM) | 3.13 µg/mL (≈ 4.67 µM) | MIC (Staphylococcus Onuma; Staphylococcus): 12.5 µg/mL (≈ 18.6 µM); MIC ([7]; Escherichia coli): 12.5 µg/mL (≈ 18.6 µM); MIC ([10]; Staphylococcus): 6.25 µg/mL (≈ 9.32 µM); MIC ([13]; Klebsiella pneumoniae): 12.5 µg/mL (≈ 18.6 µM)
2 | Cc1nc(S)cc(SCC2=C(C(=O)O)N3C(=O)[C@@H](NC(=O)[C@H](NC(=O)c4cnccc4O)c4ccccc4)[C@H]3SC2)n1 [Example 2, 7-[D-α-(4-hydroxynicotinoylamido)-α-phenylacetamido]-3-(2-methyl-4-mercaptopyrimidin-6-yl)thiomethyl-Δ ^3-cephem-4-carboxylicacid] | 12.5 µg/mL (≈ 20 µM) | 12.5 µg/mL (≈ 20 µM) | 3.13 µg/mL (≈ 5.01 µM) | 0.19 µg/mL (≈ 0.304 µM) | 0.19 µg/mL (≈ 0.304 µM) | 0.19 µg/mL (≈ 0.304 µM) | 12.5 µg/mL (≈ 20 µM) | 12.5 µg/mL (≈ 20 µM) | 12.5 µg/mL (≈ 20 µM) | 0.39 µg/mL (≈ 0.624 µM) | clear | clear | clear | slightly turbid | 0.39 µg/mL (≈ 0.624 µM) | 1.56 µg/mL (≈ 2.5 µM) | 0.39 µg/mL (≈ 0.624 µM) | 0.19 µg/mL (≈ 0.304 µM) | MIC (Staphylococcus Onuma; Staphylococcus Onuma, read-out: MIC): 6.25 µg/mL (≈ 10 µM); MIC ([7]; escherichia coli Kauffman 0-1, read-out: MIC): 6.25 µg/mL (≈ 10 µM); MIC ([10]; staphylococcus Shimanishi, read-out: MIC): 3.13 µg/mL (≈ 5.01 µM); MIC ([13]; Klebsiella pneumoniae ATCC 10031, read-out: MIC): 3.13 µg/mL (≈ 5.01 µM)
